How the values were obtained:
[1] = target: E3 ubiquitin-protein ligase XIAP (BIRC4, Homo sapiens) (UniProt P98170); experiment: Inhibition of XIAP BIR2-3 (125 to 356 residues) C202A/C213G mutant (unknown origin) fluoresceinated dimeric SMAC peptide based fluorescence polarization assay
[2] = target: Baculoviral IAP repeat-containing protein 2 (cIAP1, BIRC2, Homo sapiens) (UniProt Q13490); experiment: Inhibition of cIAP1 BIR3 (154 to 352 residues) (unknown origin) by fluoresceinated dimeric SMAC peptide based fluorescence polarization assay
Sequence of Baculoviral IAP repeat-containing protein 2 (cIAP1, BIRC2, Homo sapiens) (Q13490 whole entry, looked up, the tested form may be a part): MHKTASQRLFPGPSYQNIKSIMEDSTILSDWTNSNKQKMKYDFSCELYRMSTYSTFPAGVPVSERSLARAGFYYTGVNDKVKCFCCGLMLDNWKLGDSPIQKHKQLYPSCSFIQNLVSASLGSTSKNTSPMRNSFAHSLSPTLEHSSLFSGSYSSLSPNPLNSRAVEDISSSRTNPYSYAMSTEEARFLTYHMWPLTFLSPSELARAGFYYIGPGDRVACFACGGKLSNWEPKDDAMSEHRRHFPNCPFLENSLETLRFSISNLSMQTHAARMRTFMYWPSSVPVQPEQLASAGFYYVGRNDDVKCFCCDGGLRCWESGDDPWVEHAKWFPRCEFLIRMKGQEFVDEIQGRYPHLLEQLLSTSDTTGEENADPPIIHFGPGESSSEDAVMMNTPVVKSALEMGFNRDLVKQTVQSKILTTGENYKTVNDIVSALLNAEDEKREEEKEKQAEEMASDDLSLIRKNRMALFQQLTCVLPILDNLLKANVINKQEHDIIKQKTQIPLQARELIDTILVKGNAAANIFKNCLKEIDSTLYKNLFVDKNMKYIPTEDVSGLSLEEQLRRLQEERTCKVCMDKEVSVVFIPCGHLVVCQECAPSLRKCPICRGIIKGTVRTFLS

Sequence of E3 ubiquitin-protein ligase XIAP (BIRC4, Homo sapiens) (P98170 whole entry, looked up, the tested form may be a part): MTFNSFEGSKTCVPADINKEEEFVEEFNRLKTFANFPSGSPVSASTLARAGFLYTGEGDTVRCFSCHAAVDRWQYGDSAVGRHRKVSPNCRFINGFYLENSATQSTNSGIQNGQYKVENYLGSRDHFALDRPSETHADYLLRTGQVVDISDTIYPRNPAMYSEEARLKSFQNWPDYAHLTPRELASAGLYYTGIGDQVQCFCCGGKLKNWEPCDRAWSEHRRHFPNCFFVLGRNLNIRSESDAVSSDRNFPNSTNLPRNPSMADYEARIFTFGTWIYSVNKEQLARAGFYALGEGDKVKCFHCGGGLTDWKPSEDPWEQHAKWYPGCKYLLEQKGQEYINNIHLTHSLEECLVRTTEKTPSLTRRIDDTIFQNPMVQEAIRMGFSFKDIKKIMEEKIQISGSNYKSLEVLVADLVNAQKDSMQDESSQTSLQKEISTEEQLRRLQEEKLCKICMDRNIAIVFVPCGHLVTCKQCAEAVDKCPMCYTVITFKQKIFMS

Structure (SMILES) | IC50 [1] [nM] | IC50 [2] [nM] | EC50 [2] [nM]
CN[C@@H](C)C(=O)N[C@H](C(=O)N1C[C@@H]2C[C@H]1C(=O)N[C@@H](Cc1ccc3ccccc3c1)C(=O)N[C@H](C(=O)O)Cc1cn(nn1)[C@H]1C[C@@H](C(=O)N[C@@H](Cc3ccc4ccccc4c3)C(=O)N[C@H](C(=O)O)Cc3cn2nn3)N(C(=O)[C@@H](NC(=O)[C@H](C)NC)C(C)C)C1)C(C)C | 9 | 10 | –
CN[C@@H](C)C(=O)N[C@H](C(=O)N1C[C@@H]2C[C@H]1C(=O)N[C@@H](Cc1cccc3ccccc13)C(=O)N[C@H](C(=O)O)Cc1ccc(cc1)OCc1cn(nn1)[C@H]1C[C@@H](C(=O)N[C@@H](Cc3cccc4ccccc34)C(=O)N[C@H](C(=O)O)Cc3ccc(cc3)OCc3cn2nn3)N(C(=O)[C@@H](NC(=O)[C@H](C)NC)C(C)C)C1)C(C)C | – | 17 | –
CN[C@@H](C)C(=O)N[C@H](C(=O)N1C[C@@H]2C[C@H]1C(=O)N[C@@H](Cc1ccccc1)C(=O)N[C@H](C(=O)O)Cc1ccc(cc1)OCc1cn(nn1)[C@H]1C[C@@H](C(=O)N[C@@H](Cc3ccccc3)C(=O)N[C@H](C(=O)O)Cc3ccc(cc3)OCc3cn2nn3)N(C(=O)[C@@H](NC(=O)[C@H](C)NC)C(C)C)C1)C(C)C | – | 11 | –
CN[C@@H](C)C(=O)N[C@H](C(=O)N1C[C@@H]2C[C@H]1C(=O)N[C@@H](Cc1ccc3ccccc3c1)C(=O)N[C@H](C(=O)O)Cc1ccc(cc1)OCc1cn(nn1)[C@H]1C[C@@H](C(=O)N[C@@H](Cc3ccc4ccccc4c3)C(=O)N[C@H](C(=O)O)Cc3ccc(cc3)OCc3cn2nn3)N(C(=O)[C@@H](NC(=O)[C@H](C)NC)C(C)C)C1)C(C)C | – | 17 | –
CN[C@@H](C)C(=O)N[C@H](C(=O)N1C[C@@H]2C[C@H]1C(=O)N[C@@H](Cc1ccccc1)C(=O)N[C@H](C(=O)O)Cc1ccc(cc1)NC(=O)CCc1cn(nn1)[C@H]1C[C@@H](C(=O)N[C@@H](Cc3ccccc3)C(=O)N[C@H](C(=O)O)Cc3ccc(cc3)NC(=O)CCc3cn2nn3)N(C(=O)[C@@H](NC(=O)[C@H](C)NC)C(C)C)C1)C(C)C | – | 8 | –
CN[C@@H](C)C(=O)N[C@H](C(=O)N1C[C@@H]2C[C@H]1C(=O)N[C@@H](Cc1ccccc1)C(=O)N[C@H](C(=O)O)Cc1ccc(cc1)OCc1cn2nn1)C(C)C | – | – | 20
CN[C@@H](C)C(=O)N[C@H](C(=O)N1C[C@@H]2C[C@H]1C(=O)N[C@@H](Cc1ccccc1)C(=O)N[C@H](C(=O)O)Cc1ccc(cc1)NC(=O)CCc1cn2nn1)C(C)C | – | – | 36
